Data on 34 compounds can be found in patent US4113864A (priority 1967, dated 1978).

≈ marks a conversion by molar mass, not a printed value. Read-outs that look alike come from different tables or passages of the source.

Data set [1] relates to rice blast fungi (Pyricularia orysae). Format: in vivo.
Data set [2] concerns rice blast fungi (Pyricularia oryzae). Format: in vivo.
The test system of data set [3] is Adzuki bean weevils (Callosobruchus chinensis Linne). Format: in vivo. The settings on record: emulsifiable concentrate; dip 1 minute; after 24 hours.
Data set [4] concerns carmine mites (Tetranychus telarius Linne). Nature of the data set: Test Example 7: leaf dipping test on carmine mites, mortality after 48 hours. Format: in vivo. The settings on record: wettable powder, leaf dip 1 minute. The method, then: Mottled kidney bean plants at the 2 leaves-stage, which had elapsed 20 days after sowing were parasitized with a large number of carmine mites (Tetranychus telarius Linne). […] Subsequently, water was added so as not to wither the leaves. After 48 hours, the alive and dead of the mites were observed.

For data set [5], the system named is carmine mite (Tetranychus telarius Linne). Nature of the data set: whole plant or invertebrate. The settings on record: in Phaseolus vulgaris.
Data set [6] deals with carmine mites (Tetranychus terarius Linne). Nature of the data set: whole plant or invertebrate. The settings on record: in Glycine max, 72 h, read-out: Mortality (%) (average of 2 sections).
The test system of data set [7] is northern house mosquitoes (Culex pipiens pallens Coquillett). Nature of the data set: whole plant or invertebrate. Format: in vivo. The settings on record: granules in water, after 24 hours. The source says:
Well water was charged into a 500 cc. beaker. Into the water, full grown larvae of northern house mosquitoes (Culex pipiens pallens Coquillett) were liberated, and the present compounds (12), (16), (17), (23), (25), (26), (27), (29), (30), (85), (87), (88), (89), (94), (95), (96), (97), (100), (102), (103), (104), (105), (106), (107), (108), (109) and (110) in the form of granules were individually charged.

Data set [8] relates to carmine mites (Tetranychus telarius Linne). In words: whole plant or invertebrate. The settings on record: in Phaseolus vulgaris.
Data set [9] has as its system carmine mites (Tetranychus terarius Linne). Nature of the data set: Test Example 16: leaf dipping test on carmine mites, mortality after 48 hours. Format: in vivo. The settings on record: wettable powder, leaf dip 1 minute. The protocol:
Mottled kidney bean plants at the 2 leaves-stage, which had elapsed 20 days after sowing, were parasitized with a large number of carmine mites (Tetranychus terarius Linne). The leaves of said plants parasitized with the mites were individually dipped for 1 minute in each of solutions prepared by diluting with water the present compounds (35) to (37), (41) to (44) and (46) to (56) in the form of wettable powders. Subsequently, water was added so as not to wither the leaves. After 48 hours, the alive and dead of the mites were observed.

In data set [10] the test system is carmine mite (Tetranychus teralius Linne). The settings on record: dust 4 kg/10 ares.
For data set [11], the system named is carmine mites (Tetranychus terarius Linne). The settings on record: diluted 2,000 times; 100 Kg/10 ares; field; after 3 days.
Data set [12] concerns Small brown plant hopper (Laoclelphex striatellus Fallen). Nature of the data set: Test Example 15: insecticidal effects on small brown plant hopper. Format: in vivo, Laodelphax striatellus Fallen. The settings on record: rice seedlings dipped 1 minute in emulsion; after 24 hours. The protocol: Insecticidal effects on Small brown plant hopper (Laoclelphex striatellus Fallen)
Rice seedlings (15-20 cm. in height), which had elapsed 15 days after germination, were individually dipped for 1 minute in emulsions prepared by diluting with water to given concentrations the present compounds (10), (14), (19), (23), (31), (85), (88), (90), (93), (94), (103), (104), (106) and (109) in the form of emulsifiable concentrates. After air-drying, the rice seedlings were individually charged into test glass tubes, and 20-30 plant hoppers (Laodelphax striatellus Fallen) were liberated in each tube, and the tube was covered with gauze.

Data set [13] has as its system rice steam borers (Chilo suppressalis Walker). In words: Test Example 11: mortality of rice stem borers on sprayed rice plants. Format: in vivo. The settings on record: diluted 2,000 times; 6 cc. per pot; wettable powder; 4320 min. The source says:
Rice plants at the tillering stage were individually grown in Wagner pots. Onto the rice plants were adhered and encroached eggs of rice steam borers (Chilo suppressalis Walker) immediately before hatching. After 3 days, the rice plants were individually sprayed with each 6 cc. per pot of solutions prepared by diluting with water to 2,000 times the present compounds (11), (14), (15) and (31) in the form of wettable powders.

Data set [14] concerns carmine mite (Tetranychus telarius Linne). The settings on record: dust 4 kg/10 ares.

Consider `CCOP(=O)(OCC)SCc1ccccc1` [0,0-Diethyl-S-benzyl-phosphorothioate, reference compound], for which the Curative value in data set [1] (500 p.p.m.) came to 69.1; in [2] (1,000 p.p.m.) it was 78.6.
As to `CCOC(=O)CC(SP(=S)(OC)OC)C(=O)OCC` (stereo not drawn) [0,0-Dimethyl-S-(1,2-dicarboethoxyethyl) phosphorodithioate, reference compound], the “LC50 (diluted times)” value in [3] is recorded as 8,800 diluted times.
As for `CCOP(=S)(OCC)SC1OCCOC1SP(=S)(OCC)OCC` (stereo not drawn) [2,3-p-Dioxane S,S-bis-(0,0-diethyl phosphorodithioate), reference compound], the “LC50 (diluted times)” value in data set [4] is listed as 1,000,000 diluted times.
In turn, `CCCCSP(=O)(OCC)Oc1ccccc1` (stereo not drawn) [(1), O-ethyl-O-phenyl-S-n-butyl phosphorothiolate] came in with a Curative value in data set [1] (500 p.p.m.) of 80.1.
For `CCOP(=O)(Oc1ccccc1)SCCSc1ccccc1` (stereo not drawn) [(5), O-ethyl-O-phenyl-S-2-phenylthioethyl-phosphorothiolate], the mortality at 4 kg/10 ares in [5] (48 h) worked out at 100%; in data set [5] (120 h), 98.8%; in data set [5] (216 h), 83.4%; in [5] (312 h), 34.4%.
`C=CCSP(=O)(OCC)Oc1ccc(C)cc1` (stereo not drawn) [(33), O-ethyl-O-4-methylphenyl-S-allyl-phosphorothiolate]: the mortality at 2000 fold dilution in [6] was determined as 90.7%.
On to `CCCSP(=O)(OCC)Oc1cc(C)c(Cl)c(C)c1` (stereo not drawn) [(87)], for which the LC50 in data set [7] (Culex pipiens, read-out: LC50) came to 0.054 µg/mL (≈ 0.167 µM). The mortality at 2000 fold dilution in data set [6] worked out at 90.6%. Further, the mortality at 4 kg/10 ares in [8] (48 h) was 100%; in [8] (120 h) it was 93.7%; in data set [8] (216 h), 82.3%; in data set [8] (312 h) it was 31.6%.
For the compound `CCOC(=O)C(O)(c1ccc(Cl)cc1)c1ccc(Cl)cc1` [Ethyl 4,4'-dichlorobenzilate, reference compound], in data set [4], the “LC50 (diluted times)” value was 100,000 diluted times.
Consider “O-ethyl-O-2,4-dichlorophenyl-S-N-phthalimidemethyl-phosphorothiolate [(53)]”, for which the “LC50 (times diluted)” value in data set [9] was 1,000,000 times diluted.
On the same count and under the same terms, the figure for “O-ethyl-O-2,4-dichlorophenyl-S-allyl phosphorothiolate [(49)]” is 60,000 times diluted; for “O-ethyl-O-2,4-dichlorophenyl-S-sec-butyl-phosphorothiolate [(50)]” it is 90,000 times diluted.
On to “O-ethyl-O-2-chlorophenyl-S-2-phenylethyl phosphorothiolate [(13)]”, for which the “LC50 (diluted times)” value in [4] is recorded as 1,000,000 diluted times. Moreover, the “Mortality (%)” value was found to be 100% in data set [10] (After 2 days), 95.3% in [10] (After 5 days), 92.1% in data set [10] (After 9 days) and 61.2% in [10] (After 13 days).
As for “O-ethyl-O-2-chlorophenyl-S-allyl-phosphorothiolate [(46)]”, the “LC50 (times diluted)” value in data set [9] was 80,000 times diluted.
Consider “O-ethyl-O-2-chlorophenyl-S-propargyl phosphorothiolate [(48)]”, for which the “LC50 (times diluted)” value in [9] is recorded as 150,000 times diluted.
In the case of “O-ethyl-O-2-chlorophenyl-S-sec-butyl-phosphorothiolate [(47)]”, the “LC50 (times diluted)” value in data set [9] is 15,000 times diluted.
“O-ethyl-O-3,4-dimethyl-S-2-phenylthioethylphosphorothiolate [(52)]”: the “LC50 (times diluted)” value in [9] is given as 900,000 times diluted.
Consider “O-ethyl-O-3,4-dimethylphenyl-S-2-phenylethyl-phosphorothiolate [(9)]”, for which the “LC50 (diluted times)” value in data set [3] is listed as 200,000 diluted times. Further, the “Mortality (%)” value in data set [10] (After 2 days) was determined as 100%; in data set [10] (After 5 days), 99.2%; in [10] (After 9 days) it was 83.4%; in [10] (After 13 days) it was 53.4%.
“O-ethyl-O-3,5-dimethyl-4-chlorophenyl-S-sec-butyl phosphorothiolate [(54)]”: in data set [9], the “LC50 (times diluted)” value is recorded as 70,000 times diluted.
On the same count and under the same terms, for “O-ethyl-O-4-chlorophenyl-3-sec-butyl phosphorothiolate [(44)]” the value was 330,000 times diluted.
On the same count and under the same terms, the figure for “O-ethyl-O-4-chlorophenyl-S-2-ethylthio-ethyl-phosphorothiolate [(51)]” is 1,200,000 times diluted.
For “O-ethyl-O- 3,4-dimethylphenyl-s-(sec)-butyl phosphorothiolate [(37)]”, the “LC50 (times diluted)” value in [9] is 50,000 times diluted.
“O-ethyl-O- 3-methyl-4-chlorophenyl-S-2-phenylethyl-phosphorothiolate [(12)]”: the “LC50 (diluted times)” value in data set [3] was 180,000 diluted times. The LC50 in data set [7] came out at 0.02 p.p.m. The “Mortality (%) (average of 2 sections)” value in [11] is reported as 100.0%.
Turning to “O-ethyl-O- 3-methylphenyl-S-2-phenylethyl phosphorothiolate [(10)]”, the “LC50 (diluted times)” value was 6,000,000 diluted times in data set [4] and 300,000 diluted times in [3]. Moreover, the “LC50 (times diluted)” value in [12] is listed as 512,000 times diluted.
For “O-ethyl-O- 3-methylphenyl-S-(sec)-butyl-phosphorothiolate [(42)]”, the “LC50 (times diluted)” value in data set [9] was 1,100,000 times diluted.
As for “O-ethyl-O- 3-methylphenyl-S-allyl-phosphorothiolate [(41)]”, in data set [9], the “LC50 (times diluted)” value was 1,100,000 times diluted.
Still for that read-out and setting: the figure for “O-ethyl-O- 4-(tert)-butylphenyl-S-allyl phosphorothiolate [(36)]” is 540,000 times diluted.
Take “O-ethyl-O- 4-chlorophenyl-S-2-phenylethyl phosphorothiolate [(11)]”: the “LC50 (diluted times)” value in [4] is on record as 256,000 diluted times; in [3], 105,000 diluted times. Further, the “Mortality (%)” value in [13] came to 96.3%. Besides, in data set [2] (in vivo), the “Curative value” worked out at 87.1.
On to “O-ethyl-O- 4-chlorophenyl-S-allylphosphorothiolate [(43)]”, for which the “LC50 (times diluted)” value in data set [9] was 11,000 times diluted.
Turning to “O-ethyl-O- 4-methylphenyl-S-(sec)-butyl-phosphorothiolate [(34)]”, in [2] (in vivo), the “Curative value” was 97.2. Moreover, the “Mortality (%) (average of 2 sections)” value in [11] is given as 96.4%.
As to “O-ethyl-O- 4-methylphenyl-S-propargyl phosphorothiolate [(35)]”, the “LC50 (times diluted)” value in data set [9] was 12,000,000 times diluted.
In the case of “O-ethyl-O-phenyl-S-2-phenylethyl-phosphorothiolate [(4)]”, the Mortality (%) stood at 100% in [14] (After 2 days), 92.4% in data set [14] (After 5 days), 81.3% in data set [14] (After 9 days) and 70.3% in [14] (After 13 days).
In data set [1] (in vivo), “O-ethyl-O-phenyl-S-allylphosphorothiolate [(3)]” registered a Curative value of 98.6.
Take “O-ethyl-O-phenyl-S-sec-butyl phosphorothiolate [(55)]”: the “LC50 (times diluted)” value in [9] is 90,000 times diluted.
For “Phenylmercuric acetate [reference compound]”, the Curative value in data set [1] (in vivo) was 47.6; in data set [2] (in vivo) it was 47.7.

As a reminder, the mortality is the percentage killed.
